Measured values as given in ChEMBL document CHEMBL1137685, “A three-step synthesis from rebeccamycin of an efficient checkpoint kinase 1 inhibitor” (Eur J Med Chem, 2009).
pIC50: −log10 of the molar value.

Tests used:
[1] = target: T1, Serine/threonine-protein kinase Chk1 (Homo sapiens, UniProt O14757); experiment: Inhibition of GST-tagged human full-length CHK1 expressed in Sf9 cells
T1 sequence (O14757 whole entry): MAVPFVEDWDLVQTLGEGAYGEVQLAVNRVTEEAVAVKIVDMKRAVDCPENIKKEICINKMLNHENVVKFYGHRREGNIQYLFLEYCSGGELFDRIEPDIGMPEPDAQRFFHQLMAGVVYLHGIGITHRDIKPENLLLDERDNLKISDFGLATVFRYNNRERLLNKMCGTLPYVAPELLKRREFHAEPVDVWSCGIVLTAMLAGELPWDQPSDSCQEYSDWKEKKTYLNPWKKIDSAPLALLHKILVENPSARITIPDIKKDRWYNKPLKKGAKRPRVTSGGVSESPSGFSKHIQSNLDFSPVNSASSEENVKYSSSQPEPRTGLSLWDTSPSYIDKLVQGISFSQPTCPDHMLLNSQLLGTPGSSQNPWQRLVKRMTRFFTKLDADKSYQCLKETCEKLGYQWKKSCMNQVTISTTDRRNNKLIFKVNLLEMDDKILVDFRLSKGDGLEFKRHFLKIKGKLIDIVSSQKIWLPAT

[2] = target: Proto-oncogene tyrosine-protein kinase Src (Homo sapiens) (UniProt P12931); experiment: Inhibition of Src at 1 uM
[3] = target: T2, Serine/threonine-protein kinase Chk1 (Homo sapiens) (UniProt O14757); conditions: Sf9, 0.1 uM
T2 sequence (whole entry): T1 sequence (O14757 whole entry)
Description: Inhibition of GST-tagged human full-length CHK1 expressed in Sf9 cells at 0.1 uM

Proto-oncogene tyrosine-protein kinase Src (Homo sapiens), sequence (P12931 2-536 limits assumed): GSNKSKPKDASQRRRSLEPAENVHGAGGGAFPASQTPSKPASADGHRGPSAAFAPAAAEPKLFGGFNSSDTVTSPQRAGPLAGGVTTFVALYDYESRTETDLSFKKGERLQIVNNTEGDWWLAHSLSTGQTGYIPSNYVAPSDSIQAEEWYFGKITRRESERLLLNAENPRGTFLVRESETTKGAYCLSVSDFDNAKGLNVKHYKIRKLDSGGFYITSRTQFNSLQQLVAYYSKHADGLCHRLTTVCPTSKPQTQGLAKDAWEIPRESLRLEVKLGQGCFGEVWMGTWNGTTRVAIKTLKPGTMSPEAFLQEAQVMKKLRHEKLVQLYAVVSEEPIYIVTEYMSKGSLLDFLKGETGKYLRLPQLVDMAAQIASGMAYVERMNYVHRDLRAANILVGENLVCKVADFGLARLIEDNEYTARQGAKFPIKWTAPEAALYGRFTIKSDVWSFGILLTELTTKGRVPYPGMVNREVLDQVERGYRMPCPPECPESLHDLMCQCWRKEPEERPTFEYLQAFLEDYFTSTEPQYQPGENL

A pIC50 [1] of 8.55, an inhibition [2] of 35% and an inhibition [3] of 90% were found for `CO[C@H]1[C@H](O)[C@H]2[C@@H](O[C@@H]1CN)n1c3ccccc3c3c4c(c5c6ccccc6n2c5c31)C(=O)NC4=O` in this work.
